Earlier results as cited in patent EP3111929B1, “ORAL DISINTEGRATING FILM FORMULATION CONTAINING TADALAFIL AND PREPARATION METHOD THEREFOR” (Wooshin Labottach Co., Ltd., priority 2014, dated 2015).

Columns and labels:
[1] = water; background statement
PDE5/PDE6 = details: compared with sildenafil; background statement

**Q.** With `CN1CC(=O)N2[C@H](c3ccc4c(c3)OCO4)c3[nH]c4ccccc4c3C[C@@H]2C1=O` [tadalafil, (6R, 12aR)-6-(1,3-benzodioxol-5-yl)-2,3,6,7,12,12a-hexahydro-2-methyl-pyrazino[1',2':1,6]p yrido[3,4-b]indole-1,4-dion] as the molecule, how does the solubility [1] read?
**A.** Its solubility is “actually water-insoluble”.

**Q.** And the “selectivity of PDE5/PDE6” value (PDE5/PDE6)?
**A.** The value was “better than sildenafil”.
